Each structure is given as a SMILES string. Where only a bound is given, the exact number is not on record here.

The target of assay [1] is MAP kinase-interacting serine/threonine-protein kinase 1 (Homo sapiens) (UniProt Q9BUB5). Briefly: Selectivity interaction (KinomeScan (DiscoverX)) EUB0000595a MKNK1. The note with it: at 10 µM.
The target of assay [2] is Phosphatidylinositol 4-phosphate 5-kinase type-1 gamma (Homo sapiens) (UniProt O60331). The experiment in a line: Selectivity interaction (KinomeScan (DiscoverX)) EUB0000595a PIP5K1C. Conditions: at 10 µM.
Assay [3] deals with Tyrosine-protein kinase SYK (Homo sapiens, UniProt P43405). The experiment in a line: Selectivity interaction (ActivX KiNativ screen (ex vivo kinase selectivity in human PBMCs)) EUB0001619a SYK. The class given is cell-based. The note with it: PBMC, at 1 µM.
Assay [4] deals with Tyrosine-protein kinase Yes (Homo sapiens) (UniProt P07947). The note with it: at 10 µM.
The target of assay [5] is Serine/threonine-protein kinase Nek4 (Homo sapiens) (UniProt P51957). Briefly: Selectivity interaction (Kinase panel (Invitrogen)) EUB0000639a NEK4. The note with it: at 200 nM.
The subject of assay [6] is Tyrosine-protein kinase ABL1 (Homo sapiens), P00519 [H396P]. Briefly: Selectivity interaction (KinomeScan (DiscoverX)) EUB0000045b ABL1. The note with it: at 1 µM.
The target of assay [7] is T1, cAMP-dependent protein kinase catalytic subunit PRKX (Homo sapiens) (UniProt P51817).
T1 sequence (whole entry): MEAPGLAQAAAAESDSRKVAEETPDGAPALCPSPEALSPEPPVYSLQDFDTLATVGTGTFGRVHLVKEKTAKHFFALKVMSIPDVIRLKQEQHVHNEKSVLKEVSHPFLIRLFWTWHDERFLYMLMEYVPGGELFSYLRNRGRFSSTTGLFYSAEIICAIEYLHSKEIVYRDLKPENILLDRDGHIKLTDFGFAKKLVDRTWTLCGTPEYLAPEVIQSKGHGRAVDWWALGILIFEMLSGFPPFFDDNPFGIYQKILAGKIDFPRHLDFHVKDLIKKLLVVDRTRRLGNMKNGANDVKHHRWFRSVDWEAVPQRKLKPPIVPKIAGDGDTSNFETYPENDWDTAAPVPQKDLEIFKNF
The experiment in a line: Selectivity interaction (KinomeScan (DiscoverX)) EUB0000045b PRKX.

Assay [8] deals with Myosin light chain kinase, smooth muscle (Homo sapiens, UniProt Q15746). Briefly: Selectivity interaction (ProQinase) EUB0000171b MYLK.
Assay [9] has as its target Calcium/calmodulin-dependent protein kinase type 1D (Homo sapiens) (UniProt Q8IU85). Briefly: Selectivity interaction (Ambit KINOMEscan and KiNATiv profiling in Jurkat cells) EUB0000090b CAMK1D. Conditions: at 1 µM. The class given is cell-based.
Assay [10] concerns the target 5-hydroxytryptamine receptor 2B (Homo sapiens, UniProt P41595). The experiment in a line: Selectivity interaction (Serotonin 5HT2B Calcium flux assay, agonist mode ) EUB0000877a HTR2B.
For assay [11], the target named is T2, Serine/threonine-protein kinase 17A (Homo sapiens) (UniProt Q9UEE5).
T2 sequence (whole entry): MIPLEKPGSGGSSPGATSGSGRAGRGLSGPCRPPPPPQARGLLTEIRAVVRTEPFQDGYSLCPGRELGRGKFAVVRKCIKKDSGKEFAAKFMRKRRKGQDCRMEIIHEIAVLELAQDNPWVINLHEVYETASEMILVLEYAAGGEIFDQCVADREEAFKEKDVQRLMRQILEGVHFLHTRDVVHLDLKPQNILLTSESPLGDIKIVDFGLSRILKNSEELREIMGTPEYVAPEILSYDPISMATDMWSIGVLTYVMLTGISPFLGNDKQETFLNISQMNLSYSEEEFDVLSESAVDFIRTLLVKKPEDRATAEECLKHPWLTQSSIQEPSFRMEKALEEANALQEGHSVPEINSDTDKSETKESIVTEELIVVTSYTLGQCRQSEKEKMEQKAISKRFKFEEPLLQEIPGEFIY
Briefly: Selectivity interaction (KinomeScan (DiscoverX)) EUB0000618a STK17A. Conditions: at 10 µM.

Assay [12] deals with T3, SNF-related serine/threonine-protein kinase (Homo sapiens) (UniProt Q9NRH2).
T3 sequence (whole entry): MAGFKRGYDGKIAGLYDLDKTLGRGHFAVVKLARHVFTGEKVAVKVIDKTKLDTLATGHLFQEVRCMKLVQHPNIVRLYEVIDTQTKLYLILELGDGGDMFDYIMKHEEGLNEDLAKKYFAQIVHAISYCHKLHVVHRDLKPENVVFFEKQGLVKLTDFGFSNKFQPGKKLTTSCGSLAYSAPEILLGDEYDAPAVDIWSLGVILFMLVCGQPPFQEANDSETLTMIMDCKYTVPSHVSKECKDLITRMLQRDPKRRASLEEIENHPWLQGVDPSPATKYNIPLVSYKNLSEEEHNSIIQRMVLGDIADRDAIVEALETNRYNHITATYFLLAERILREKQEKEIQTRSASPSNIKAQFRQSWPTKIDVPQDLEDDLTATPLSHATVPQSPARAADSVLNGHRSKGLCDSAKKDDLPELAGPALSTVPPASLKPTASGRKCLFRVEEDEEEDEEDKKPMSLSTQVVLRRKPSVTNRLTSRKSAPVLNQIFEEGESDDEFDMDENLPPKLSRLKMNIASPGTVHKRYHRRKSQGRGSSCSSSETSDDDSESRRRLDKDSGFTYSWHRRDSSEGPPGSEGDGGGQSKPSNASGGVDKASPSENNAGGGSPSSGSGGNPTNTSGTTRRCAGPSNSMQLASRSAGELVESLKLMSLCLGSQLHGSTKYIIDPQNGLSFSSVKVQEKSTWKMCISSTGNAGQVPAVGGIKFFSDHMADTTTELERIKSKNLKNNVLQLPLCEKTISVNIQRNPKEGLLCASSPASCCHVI
Briefly: Selectivity interaction (KinomeScan (DiscoverX)) EUB0000618a SNRK. Conditions: at 10 µM.

In assay [13] the target is BMP-2-inducible protein kinase (Homo sapiens) (UniProt Q9NSY1). Briefly: Selectivity interaction (KinomeScan (DiscoverX)) EUB0000092b BMP2K. Conditions: at 10 µM.
For assay [14], the target named is T4, Activin receptor type-1B (Homo sapiens) (UniProt P36896).
T4 sequence (whole entry): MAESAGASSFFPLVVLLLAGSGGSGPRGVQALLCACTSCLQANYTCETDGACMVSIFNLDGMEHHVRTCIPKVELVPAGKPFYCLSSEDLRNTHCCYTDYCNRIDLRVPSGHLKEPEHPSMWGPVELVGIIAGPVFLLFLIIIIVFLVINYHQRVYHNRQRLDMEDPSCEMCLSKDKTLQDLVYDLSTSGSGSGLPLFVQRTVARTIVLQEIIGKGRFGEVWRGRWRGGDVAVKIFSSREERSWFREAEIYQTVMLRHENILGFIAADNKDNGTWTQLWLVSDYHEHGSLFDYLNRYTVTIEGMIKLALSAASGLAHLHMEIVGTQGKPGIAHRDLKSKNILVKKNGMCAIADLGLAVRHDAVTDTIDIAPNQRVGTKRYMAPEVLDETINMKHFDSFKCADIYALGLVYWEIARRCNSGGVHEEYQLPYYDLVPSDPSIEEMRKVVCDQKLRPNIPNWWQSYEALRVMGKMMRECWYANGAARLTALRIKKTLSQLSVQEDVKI
Briefly: Selectivity interaction (KinomeScan (DiscoverX)) EUB0001079a ACVR1B. The note with it: at 1 µM.

Chain of Myosin light chain kinase, smooth muscle (Q15746 whole entry): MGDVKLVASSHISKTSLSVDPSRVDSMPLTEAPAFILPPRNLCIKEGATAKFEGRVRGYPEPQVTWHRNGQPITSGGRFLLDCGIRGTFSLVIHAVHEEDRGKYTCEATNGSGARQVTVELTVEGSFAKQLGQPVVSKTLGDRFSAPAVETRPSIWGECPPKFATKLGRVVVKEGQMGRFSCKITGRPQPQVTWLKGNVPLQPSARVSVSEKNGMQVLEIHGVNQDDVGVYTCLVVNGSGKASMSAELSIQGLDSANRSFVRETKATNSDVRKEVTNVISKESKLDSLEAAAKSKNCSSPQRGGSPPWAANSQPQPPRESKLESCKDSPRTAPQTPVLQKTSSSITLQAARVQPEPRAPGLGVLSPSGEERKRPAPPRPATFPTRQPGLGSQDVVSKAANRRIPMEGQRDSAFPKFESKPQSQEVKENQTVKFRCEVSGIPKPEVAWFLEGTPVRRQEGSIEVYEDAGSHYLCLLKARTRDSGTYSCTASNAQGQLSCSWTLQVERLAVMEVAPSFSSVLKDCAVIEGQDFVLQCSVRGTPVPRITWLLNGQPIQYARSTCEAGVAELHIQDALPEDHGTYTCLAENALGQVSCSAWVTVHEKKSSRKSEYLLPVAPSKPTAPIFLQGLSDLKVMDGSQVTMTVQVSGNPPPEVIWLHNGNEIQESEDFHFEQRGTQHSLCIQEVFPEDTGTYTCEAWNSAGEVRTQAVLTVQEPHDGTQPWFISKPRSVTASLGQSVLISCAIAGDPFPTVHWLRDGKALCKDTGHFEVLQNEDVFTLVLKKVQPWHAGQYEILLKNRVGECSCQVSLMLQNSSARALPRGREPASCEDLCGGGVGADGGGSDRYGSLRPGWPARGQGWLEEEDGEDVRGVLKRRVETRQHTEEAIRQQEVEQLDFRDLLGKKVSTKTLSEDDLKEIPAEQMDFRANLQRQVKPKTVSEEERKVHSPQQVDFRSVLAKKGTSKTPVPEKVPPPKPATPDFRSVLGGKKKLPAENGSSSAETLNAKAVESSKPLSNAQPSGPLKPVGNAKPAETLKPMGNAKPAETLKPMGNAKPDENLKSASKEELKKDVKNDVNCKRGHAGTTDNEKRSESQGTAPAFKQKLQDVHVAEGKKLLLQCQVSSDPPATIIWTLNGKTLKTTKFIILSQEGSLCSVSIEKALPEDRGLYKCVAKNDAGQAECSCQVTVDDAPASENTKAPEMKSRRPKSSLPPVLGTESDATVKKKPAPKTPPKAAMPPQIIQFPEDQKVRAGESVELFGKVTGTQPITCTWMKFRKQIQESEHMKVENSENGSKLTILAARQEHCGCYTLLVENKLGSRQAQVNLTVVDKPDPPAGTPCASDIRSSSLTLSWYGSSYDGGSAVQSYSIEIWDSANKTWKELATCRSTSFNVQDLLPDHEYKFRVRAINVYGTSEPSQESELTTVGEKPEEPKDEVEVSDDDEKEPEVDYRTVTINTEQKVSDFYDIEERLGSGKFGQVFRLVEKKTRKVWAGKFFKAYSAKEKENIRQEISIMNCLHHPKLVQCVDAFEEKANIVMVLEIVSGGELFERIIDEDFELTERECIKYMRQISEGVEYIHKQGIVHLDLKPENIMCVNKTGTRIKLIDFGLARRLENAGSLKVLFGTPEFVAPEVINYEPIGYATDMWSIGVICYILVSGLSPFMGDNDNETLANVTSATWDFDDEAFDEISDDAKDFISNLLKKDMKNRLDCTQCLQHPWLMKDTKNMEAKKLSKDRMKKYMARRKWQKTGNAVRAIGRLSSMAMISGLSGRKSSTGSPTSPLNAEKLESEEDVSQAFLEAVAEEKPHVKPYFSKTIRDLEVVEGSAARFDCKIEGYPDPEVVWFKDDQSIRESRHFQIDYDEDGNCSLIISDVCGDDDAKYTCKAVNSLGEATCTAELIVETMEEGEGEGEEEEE
Chain of Tyrosine-protein kinase Yes (Homo sapiens) (P07947 2-543 limits assumed): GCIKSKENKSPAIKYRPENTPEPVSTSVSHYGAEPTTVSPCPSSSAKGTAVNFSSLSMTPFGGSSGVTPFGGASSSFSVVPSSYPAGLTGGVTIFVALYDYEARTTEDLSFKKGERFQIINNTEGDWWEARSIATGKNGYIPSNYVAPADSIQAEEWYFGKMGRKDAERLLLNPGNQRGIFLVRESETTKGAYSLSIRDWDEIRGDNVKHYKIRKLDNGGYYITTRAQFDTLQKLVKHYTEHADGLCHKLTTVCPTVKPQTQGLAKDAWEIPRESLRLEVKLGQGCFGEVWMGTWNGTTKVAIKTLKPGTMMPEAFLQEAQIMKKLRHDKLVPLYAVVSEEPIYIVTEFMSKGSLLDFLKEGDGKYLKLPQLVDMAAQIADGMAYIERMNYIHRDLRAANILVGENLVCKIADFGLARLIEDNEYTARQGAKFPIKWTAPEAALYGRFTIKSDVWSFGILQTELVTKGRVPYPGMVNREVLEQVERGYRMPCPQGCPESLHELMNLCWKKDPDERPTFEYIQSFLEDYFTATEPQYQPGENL
Chain of 5-hydroxytryptamine receptor 2B (P41595 whole entry): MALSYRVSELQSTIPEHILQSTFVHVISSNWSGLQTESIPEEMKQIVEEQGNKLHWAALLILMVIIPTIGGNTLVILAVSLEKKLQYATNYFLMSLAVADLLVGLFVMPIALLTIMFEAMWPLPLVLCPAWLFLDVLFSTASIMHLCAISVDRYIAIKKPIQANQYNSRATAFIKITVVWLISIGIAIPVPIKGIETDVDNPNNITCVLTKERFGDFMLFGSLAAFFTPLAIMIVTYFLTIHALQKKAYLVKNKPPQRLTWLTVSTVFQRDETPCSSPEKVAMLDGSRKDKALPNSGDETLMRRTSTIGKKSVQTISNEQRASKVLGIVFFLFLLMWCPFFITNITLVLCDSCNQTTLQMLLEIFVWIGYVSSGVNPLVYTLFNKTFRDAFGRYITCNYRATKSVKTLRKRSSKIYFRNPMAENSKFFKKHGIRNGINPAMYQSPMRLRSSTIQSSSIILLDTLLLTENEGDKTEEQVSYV
Chain of Serine/threonine-protein kinase Nek4 (Homo sapiens) (P51957 whole entry, looked up): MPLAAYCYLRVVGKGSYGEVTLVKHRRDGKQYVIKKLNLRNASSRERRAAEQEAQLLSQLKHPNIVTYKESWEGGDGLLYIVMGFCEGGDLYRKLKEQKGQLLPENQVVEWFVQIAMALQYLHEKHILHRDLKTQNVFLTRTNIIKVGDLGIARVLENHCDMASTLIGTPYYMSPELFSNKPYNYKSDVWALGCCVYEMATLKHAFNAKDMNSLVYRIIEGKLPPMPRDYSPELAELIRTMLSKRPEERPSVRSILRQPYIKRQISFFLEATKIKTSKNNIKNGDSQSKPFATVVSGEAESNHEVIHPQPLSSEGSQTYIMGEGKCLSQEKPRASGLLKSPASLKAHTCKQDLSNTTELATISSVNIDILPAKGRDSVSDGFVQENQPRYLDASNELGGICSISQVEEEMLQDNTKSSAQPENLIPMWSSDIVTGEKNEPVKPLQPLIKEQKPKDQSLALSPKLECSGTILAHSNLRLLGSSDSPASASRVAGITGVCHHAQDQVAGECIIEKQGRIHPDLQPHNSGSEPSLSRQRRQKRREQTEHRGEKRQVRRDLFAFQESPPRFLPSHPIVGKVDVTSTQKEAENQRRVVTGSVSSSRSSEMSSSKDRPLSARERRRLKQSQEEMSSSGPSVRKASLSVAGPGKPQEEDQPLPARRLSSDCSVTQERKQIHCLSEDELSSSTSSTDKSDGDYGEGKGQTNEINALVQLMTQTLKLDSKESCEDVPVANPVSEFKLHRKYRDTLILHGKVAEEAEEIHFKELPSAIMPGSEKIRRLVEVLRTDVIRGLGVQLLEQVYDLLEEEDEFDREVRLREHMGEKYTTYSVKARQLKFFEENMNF
Chain of MAP kinase-interacting serine/threonine-protein kinase 1 (Homo sapiens) (Q9BUB5 whole entry, looked up): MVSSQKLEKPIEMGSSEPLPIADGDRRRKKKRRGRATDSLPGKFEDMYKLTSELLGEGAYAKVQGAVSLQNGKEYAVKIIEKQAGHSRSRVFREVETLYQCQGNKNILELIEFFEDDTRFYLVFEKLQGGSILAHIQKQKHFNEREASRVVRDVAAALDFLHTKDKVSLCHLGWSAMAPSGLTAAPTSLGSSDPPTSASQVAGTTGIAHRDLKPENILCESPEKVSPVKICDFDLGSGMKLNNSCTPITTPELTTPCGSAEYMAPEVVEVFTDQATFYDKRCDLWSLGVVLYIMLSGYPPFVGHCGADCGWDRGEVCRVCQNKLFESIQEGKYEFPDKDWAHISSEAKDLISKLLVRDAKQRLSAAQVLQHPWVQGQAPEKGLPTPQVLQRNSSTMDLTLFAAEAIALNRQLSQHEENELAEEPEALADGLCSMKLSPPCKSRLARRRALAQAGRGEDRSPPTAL
Chain of Calcium/calmodulin-dependent protein kinase type 1D (Homo sapiens) (Q8IU85 whole entry, looked up): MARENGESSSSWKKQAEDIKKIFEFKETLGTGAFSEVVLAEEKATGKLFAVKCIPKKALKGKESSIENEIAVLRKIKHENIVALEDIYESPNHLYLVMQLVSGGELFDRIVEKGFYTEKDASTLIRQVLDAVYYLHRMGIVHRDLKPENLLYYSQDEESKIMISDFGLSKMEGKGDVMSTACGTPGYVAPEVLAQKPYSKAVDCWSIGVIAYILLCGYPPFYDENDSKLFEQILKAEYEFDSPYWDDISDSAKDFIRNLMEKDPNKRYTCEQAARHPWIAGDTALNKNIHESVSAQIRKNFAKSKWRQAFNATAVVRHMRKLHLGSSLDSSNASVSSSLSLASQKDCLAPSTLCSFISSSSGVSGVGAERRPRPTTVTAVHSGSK

As to `COCC(=O)NC/C=C/c1ccc2ncnc(Nc3ccc(Oc4ccc(C)nc4)c(C)c3)c2c1` [CP-724714], the % of control in assay [1] was found to be 100%; in assay [2] it was 93%.

In assay [3], `N#Cc1cccc(-c2c[nH]c3ncnc(N4CCOCC4)c23)c1` had a % of inhibition of 7%.

`CCN(CC)CCCCNc1ncc2cc(-c3cc(OC)cc(OC)c3)c(NC(=O)NC(C)(C)C)nc2n1`: the % of control in assay [4] was 100%.

In assay [5], `CC[C@@H]1[C@H](F)C(=O)N[C@@H]1COc1nccc2cc(C(N)=O)c(OC)cc12` [ZIMLOVISERTIB] gave a % of inhibition of 3.25%.

With `C=CC(=O)Nc1cc(-n2c(=O)ccc3cnc4ccc(-c5ccc(NS(C)(=O)=O)cc5)cc4c32)ccc1C`, the figures for the % of control in assay [6], in assay [7] (at 1 µM) and in assay [7] (at 10 µM) were 74%, 77% and 74%, respectively.

In the case of `C=CC(=O)Nc1cccc(C(=O)Nc2ccc(Nc3cc(-c4[nH]c(SC)nc4C)ccn3)cc2)c1`, the results for the % of control in assay [8] (at 1 µM) and in assay [8] (at 5 µM) were 84% and 60%, respectively.

As to `CN(C)C/C=C/C(=O)Nc1ccc(C(=O)N2CCCC(Nc3ncc(Cl)c(-c4c[nH]c5ccccc45)n3)C2)cc1` (stereo unspecified), in assay [9], the % of control turned out to be 78%.

Consider `CCC(=O)N1CC[C@H](Nc2ncnc3c2CN(c2cnc(OC)c(C(F)(F)F)c2)CC3)C1` [LENIOLISIB], for which the IC50 (as a rule, the midpoint of a concentration-inhibition curve) in [10] was above 30 µM.

On to `O[C@H]1CC[C@H](Nc2ncc3nc(Nc4c(F)cc(F)cc4F)n([C@H]4CCOC4)c3n2)CC1`, for which the % of control in assay [11] and in [12] was 100% each time.

As for `CCC(=O)N1CCN(c2ccc(-n3c(=O)ccc4cnc5ccc(-c6cnc7ccccc7c6)cc5c43)cc2C(F)(F)F)CC1`, the % of control in assay [13] came out at 100%.

On to `Nc1cnc(N2CCc3cc(S(=O)(=O)Nc4c(F)cc(Cl)cc4F)cc(N4CCCC4=O)c32)nc1` [TP-020n], for which the % of control in assay [14] is 96%.

The values above are taken from ChEMBL document CHEMBL5465560, “Selectivity Literature for EUbOPEN Chemogenomic Library” (2024).
